Where two headings read alike, the source gives them in different places. Bounds are passed on as bounds.

Experimental findings from patent US9388139B2, “Derivatives of celeboxib, use thereof and preparation thereof” (German University, priority 2011, dated 2016) are described below.

Experiment [1] has as its target recombinant human PDE5 (Homo sapiens (Human), UniProt O76074). As to the kind of experiment: PDE5 inhibition, IMAP fluorescence polarization assay. It is filed as biochemical. To be noted: recombinant human PDE5; IC50 determined if inhibition >50% at 50 μM screening dose; read-out: IC50 μM against PDE5. The procedure:
(§1) Compounds according to the present disclosure were tested for their in vitro ability to inhibit recombinant human PDE5, COX1 and COX2 enzymes at screening doses of 50, 100 and 100 μM respectively.
PDE activity was measured using the IMAP fluorescence polarization assay (Molecular Devices) in which binding of hydrolyzed cyclic nucleotide substrate to immobilized metal coordination complexes increases fluorescence polarization (FP). Tetramethylrhodamine (TAMRA)-cGMP and fluorescein-cAMP were used as substrates, each at final concentration of 50 nmol/L. The PDE assay was done according to the manufacturer's specifications using either whole cell lysates or recombinant enzymes.

In experiment [2] the target is COX1 (Ovis aries (Sheep), UniProt P05979). As to the kind of experiment: COX-1 activity, colorimetric assay. The experiment is classed as biochemical, ovine. The settings on record: screening dose 100 μM; read-out: IC50 μM against COX1. On the procedure: as §1
(§2) COX-1 and COX-2 activities were measured using purified ovine COX-1 and COX-2 with colorimetric assay kits obtained from Cayman Chemical Co. (Ann Arbor, Mich.). The activities of COX-1 and COX-2 were measured after the addition of arachidonic acid and incubation at 25° C. for 5 min by absorbance at 590 nm as specified by the manufacturer.

Experiment [3] concerns the target COX2 (Ovis aries (Sheep), UniProt P79208). Description: COX-2 activity, colorimetric assay. The experiment is classed as biochemical, ovine. The settings on record: screening dose 100 μM; read-out: IC50 μM against COX2. The procedure:
as §1, §2

Experiment [4] concerns human breast MDA-MB-231 tumor cell line. As to the kind of experiment: Tumor cell growth assay (Cell Titer Glo). To be noted: read-out: IC50 μM against MDA-MB-231. The experiment is classed as cell-based. On the technique in general: ATP-based viability assays read luminescence as a measure of living cells.
Experiment [5] relates to human colorectal HT-29 tumor cell line. Description: Tumor cell growth assay (Cell Titer Glo). It is filed as cell-based. To be noted: read-out: IC50 μM against HT-29.

COX2, sequence (P79208 17-603): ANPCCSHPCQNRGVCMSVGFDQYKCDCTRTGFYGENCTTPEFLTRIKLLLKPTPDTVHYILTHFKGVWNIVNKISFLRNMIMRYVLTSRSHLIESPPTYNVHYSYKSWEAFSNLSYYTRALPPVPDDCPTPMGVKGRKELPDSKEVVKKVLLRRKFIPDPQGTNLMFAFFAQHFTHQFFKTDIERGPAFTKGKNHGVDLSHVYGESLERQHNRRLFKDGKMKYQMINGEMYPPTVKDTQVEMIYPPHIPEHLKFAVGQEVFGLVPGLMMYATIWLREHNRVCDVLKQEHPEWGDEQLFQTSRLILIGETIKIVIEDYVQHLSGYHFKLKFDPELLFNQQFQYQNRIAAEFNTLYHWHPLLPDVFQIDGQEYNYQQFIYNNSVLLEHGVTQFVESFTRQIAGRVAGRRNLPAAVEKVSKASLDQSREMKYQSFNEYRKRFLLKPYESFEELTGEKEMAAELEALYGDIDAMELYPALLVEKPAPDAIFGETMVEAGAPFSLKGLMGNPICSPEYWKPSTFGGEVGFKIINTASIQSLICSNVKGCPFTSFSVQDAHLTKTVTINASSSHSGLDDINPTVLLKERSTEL
COX1, sequence (P05979 25-600): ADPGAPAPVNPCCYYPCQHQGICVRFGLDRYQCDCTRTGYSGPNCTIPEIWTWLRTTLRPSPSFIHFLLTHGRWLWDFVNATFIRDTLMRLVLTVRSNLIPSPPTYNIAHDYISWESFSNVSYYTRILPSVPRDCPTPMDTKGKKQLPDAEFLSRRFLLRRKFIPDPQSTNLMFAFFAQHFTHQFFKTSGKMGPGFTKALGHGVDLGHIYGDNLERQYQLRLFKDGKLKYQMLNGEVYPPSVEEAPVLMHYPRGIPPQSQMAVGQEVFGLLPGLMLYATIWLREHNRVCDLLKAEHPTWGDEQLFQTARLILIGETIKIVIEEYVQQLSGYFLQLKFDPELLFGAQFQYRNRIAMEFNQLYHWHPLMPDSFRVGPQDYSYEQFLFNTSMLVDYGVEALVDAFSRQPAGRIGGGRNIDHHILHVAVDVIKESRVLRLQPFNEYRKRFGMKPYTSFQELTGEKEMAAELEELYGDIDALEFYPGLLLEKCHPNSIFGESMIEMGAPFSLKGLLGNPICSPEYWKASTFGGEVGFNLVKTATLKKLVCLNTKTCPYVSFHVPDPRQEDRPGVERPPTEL

For the molecule `CCOc1ccccc1C1CC(C(C)(C)C)=NN1c1ccc(C(=O)O)cc1` (stereo not shown) [Compound 20, 4-(3-(tert-Butyl)-5-(2-ethoxyphenyl)-4,5-dihydro-1H-pyrazol-1-yl)benzoic acid], the IC50 (usually the concentration needed to halve the response being measured) in experiment [1] is 2 µM; in experiment [2], over 100 µM; in experiment [3], over 100 µM; in experiment [4] (72 hours) it was over 50 µM; in experiment [5] (72 hours) it was 22 µM.
For the molecule `CC(C)(C)C1=NN(c2ccc(C(=O)O)cc2)C(c2ccc(Cl)cc2)C1` (stereo not shown) [Compound 21, 4-(3-tert-Butyl-5-(4-chlorophenyl)-4,5-dihydro-1H-pyrazol-1-yl)benzoic acid], the IC50 was 8.7 µM in experiment [1]; over 100 µM in experiment [2]; over 100 µM in experiment [3]; over 50 µM in experiment [4] (MDA-MB-231, 72 hours); over 50 µM in experiment [5] (HT-29, 72 hours).
`CC(C)(C)C1=NN(c2ccc(C(=O)O)cc2)C(c2ccccc2)C1` (stereo not shown) [Compound 22, 4-(3-tert-Butyl-5-phenyl-4,5-dihydro-1H-pyrazol-1-yl)benzoic acid]: the IC50 in experiment [1] was 6.22 µM; in experiment [2], over 100 µM; in experiment [3], over 100 µM; in experiment [4] (MDA-MB-231, 72 hours), over 50 µM; in experiment [5] (HT-29, 72 hours), over 50 µM.
Take `Cc1ccc(C2CC(C(C)(C)C)=NN2c2ccc(C(=O)O)cc2)cc1` (stereo not shown) [Compound 23, 4-(3-tert-Butyl-5-p-tolyl-4,5-dihydro-1H-pyrazol-1-yl)benzoic acid]: the IC50 in experiment [1] is 8.4 µM; in experiment [2], over 100 µM; in experiment [3], over 100 µM; in experiment [4] (MDA-MB-231, 72 hours) it was over 50 µM; in experiment [5] (HT-29, 72 hours), over 50 µM.
As for `CC(C)(C)C1=NN(c2ccc(C(=O)O)cc2)C(c2ccc(Br)cc2)C1` (stereo not shown) [Compound 24, 4-(5-(4-Bromophenyl)-3-tert-butyl-4,5-dihydro-1H-pyrazol-1-yl)benzoic acid], the IC50 is 7.7 µM in experiment [1]; over 100 µM in experiment [2]; over 100 µM in experiment [3]; over 50 µM in experiment [4] (MDA-MB-231, 72 hours); over 50 µM in experiment [5] (HT-29, 72 hours).
As to `CC(C)(C)C1=NN(c2ccc(S(=O)(=O)O)cc2)C(c2ccc(F)cc2)C1` (stereo not shown) [Compound 25, 4-(3-tert-Butyl-5-(4-fluorophenyl)-4,5-dihydro-1H-pyrazol-1-yl)benzenesulfonic acid], the IC50 in experiment [1] is 3.3 µM; in experiment [2] it was over 100 µM; in experiment [3] it was over 100 µM; in experiment [4] (MDA-MB-231, 72 hours), over 50 µM; in experiment [5] (HT-29, 72 hours), over 50 µM.
On to `CC(C)(C)C1=NN(c2ccc(S(=O)(=O)O)cc2)C(c2ccc(Cl)cc2)C1` (stereo not shown) [Compound 26, 4-(3-tert-Butyl-5-(4-chlorophenyl)-4,5-dihydro-1H-pyrazol-1-yl)benzenesulfonic acid], for which the IC50 in experiment [1] is 7.2 µM; in experiment [2] it was over 100 µM; in experiment [3], over 100 µM; in experiment [4] (MDA-MB-231, 72 hours), over 50 µM; in experiment [5] (HT-29, 72 hours), over 50 µM.
Consider `COc1ccc(C2CC(c3ccc(F)cc3)=NN2c2ccc(C(=O)O)cc2)cc1` (stereo not shown) [Compound 27, 4-(3-(4-Fluorophenyl)-5-(4-methoxyphenyl)-4,5-dihydropyrazol-1-yl)benzoic acid], for which the IC50 in experiment [1] was 3.1 µM; in experiment [2], over 100 µM; in experiment [3], over 100 µM; in experiment [4] (MDA-MB-231, 72 hours), over 50 µM; in experiment [5] (HT-29, 72 hours), over 50 µM.
